Reference: patent US11655254B2, “Substituted piperazines as BTK inhibitors” (HUTCHISON MEDIPHARMA LIMITED, priority 2020, dated 2023)

What was measured:
[1] = Drug concentration in plasma of mice of the B cell activation study; type: in vivo; settings: C57BL/6, plasma; mouse, 20 mg/kg oral, 16 h after administration
Experimental: The animals of each group were administered, then were placed in CO2 for anesthesia at designated time points, blood samples were taken from […] via retro-orbital bleeding, and heparin was used for anticoagulation; 90 μL of whole blood was taken from mice of each group, and added to a 96 well culture plate, and anti-mouse IgD antibody (BIO-RAD, Cat #MCA4693) was added to each well to a final concentration of 0.01 μg/μL (respectively for each drug-treated group and anti-IgD antibody-inducted vehicle group); in addition, 90 μL of whole blood of mice in the vehicle group was taken and added to the 96-well culture plate, and PBS (phosphate buffer, GIBCO, Cat # C20012500BT) was added to each well to a final concentration of 0.01 μg/μL (namely, the vehicle control group); Each group was mixed well and incubated in a 37° C./5% CO2 incubator for 4 hours. In addition, the blood of mice in the drug-treated group was centrifuged to separate plasma for blood concentration analysis.

[2] = system: B cell activation in mice whole blood (BTK target); assay: In vivo inhibitory effect on BTK target: anti-IgD antibody-induced B cell activation in mice whole blood after oral dosing; set-up: species or system mouse; settings: 20 mg/kg oral gavage, single administration, 16 h
From the text: Objects: B cells in mice whole blood were induced and activated by the anti-IgD antibody, and the inhibitory effect of the compound of the present invention on B cell activation in vivo was studied, so as to determine the inhibitory effect of the compound of the present invention on the BTK target in vivo.
Methods: C57BL/6 mice (female, 18-20 g, purchased from Shanghai Lingchang Biotechnology Co., Ltd.) were grouped according to Table 1.
In addition, the blood of mice in the drug-treated group was centrifuged to separate plasma for blood concentration analysis.
Calculation for Inhibition Ratio: Inhibition ratio=(percentage of B cell activation ratio in anti-IgD antibody-induced vehicle group-percentage of B cell activation ratio in drug-treated group)/(percentage of B cell activation ratio in anti-IgD antibody-induced vehicle group-percentage of B cell activation ratio in vehicle control group)×100%
All data are represented by mean±standard error. For the comparison between each drug-treated group and the anti-IgD antibody-induced vehicle group, p value was calculated by Graphpad Prism using one-way ANOVA analysis of variance and Dunnett's test, and for the comparison between each drug-treated group, p value was calculated by using unpaired t test.

[3] = target: Phosphorylated BTK in Ramos cells (Homo sapiens (Human), UniProt Q06187); assay: Determination of phosphorylated BTK in Ramos cells (BTK phospho-Y223 HTRF); type: cell-based; settings: Ramos cells stimulated with immunoglobulin M 10 μg/mL and hydrogen peroxide 3.3 mM, 10 minutes
Chain of Phosphorylated BTK in Ramos cells (Q06187 whole entry): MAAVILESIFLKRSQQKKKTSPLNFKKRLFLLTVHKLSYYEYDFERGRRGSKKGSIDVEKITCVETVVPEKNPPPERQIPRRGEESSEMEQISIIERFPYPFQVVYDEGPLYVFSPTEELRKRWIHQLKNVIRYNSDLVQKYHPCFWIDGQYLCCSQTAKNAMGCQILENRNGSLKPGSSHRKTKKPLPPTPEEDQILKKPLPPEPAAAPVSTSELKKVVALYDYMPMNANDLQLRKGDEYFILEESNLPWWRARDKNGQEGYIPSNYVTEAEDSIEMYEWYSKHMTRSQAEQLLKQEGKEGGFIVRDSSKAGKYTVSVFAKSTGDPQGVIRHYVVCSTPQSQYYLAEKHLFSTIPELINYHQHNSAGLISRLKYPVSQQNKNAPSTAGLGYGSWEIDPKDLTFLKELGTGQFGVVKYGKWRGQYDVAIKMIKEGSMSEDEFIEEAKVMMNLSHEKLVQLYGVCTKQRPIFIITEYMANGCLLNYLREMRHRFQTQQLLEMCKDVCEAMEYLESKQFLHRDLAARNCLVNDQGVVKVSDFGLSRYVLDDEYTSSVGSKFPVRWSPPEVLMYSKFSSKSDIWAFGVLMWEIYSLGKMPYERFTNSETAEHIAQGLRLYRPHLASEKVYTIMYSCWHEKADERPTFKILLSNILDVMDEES
Experimental: Ramos cells were starved in PRMI 1640 medium with 1% FBS for 2 hours. The starved Ramos cells were diluted with Hank's balanced salt solution to 5.0×10^6 cells/ml, seeded in a 96-well plate with 20 μL/well (1.0×10^5 cells/well), and cultured in a 5% CO2, 37° C. cell incubator. […]
The 384 well plate incubated overnight in the constant temperature incubator was taken out to detect the luminescence signal using the Envision microwell plate reader at the […]. The reading value at 665 nm/615 nm of each well multiplied by 10^4 was used as the signal value of each well.
The average signal value of the wells supplemented with the mixed solution of human immunoglobulin M (final concentration was 10 μg/mL) and hydrogen peroxide (final concentration was 3.3 mM) without the test compound was regarded as the high value, and the average signal value of the wells without immunoglobulin M stimulation and without the test compound was regarded as the low value. According to the signal value in each well, the inhibition ratio (%) of each concentration of compounds was calculated, and the 205 model in XL-Fit 5.3 software (ID Business Solutions Limited) was used to obtain an IC50 value.
The inhibition ratio is calculated as follows: inhibition ratio (%)=100%−{(treating well for the test compound−negative control treating well)/(control treating well for anti-human immunoglobulin M−negative control treating well)}×100%, wherein, […]

[4] = Stability test in liver microsomes (rat); type: in vitro ADME; settings: rat liver microsomes 0.5 mg/mL, compound 1 μM, 37° C.
Experimental: The test compound stock solution was diluted with an organic solvent (usually a mixture of acetonitrile, methanol and water with various ratios, depending on the solubility of the compound, if necessary, 1 N hydrochloric acid or 1 N sodium hydroxide would be added to facilitate solubilization) to the 0.1 mM (the final concentration of the compound in the reaction system was 1 μM) and the concentration percentage of the organic solvents in the incubation system no more than 1% (wherein the percentage of DMSO was required to be no more than 0.1%). An appropriate amount of 100 mM NADP, 500 mM G-6-P and 100 Unit/mL G-6-PDH were mixed and diluted with ultrapure water (the final system contains 1 mM NADP, 5 mM G-6-P and 1 Unit/mL G-6-PDH), pre-incubated in a 37° C. water bath for 10 minutes and then placed on ice for use as a NADPH regeneration solution. 20 mg/mL liver microsomes solution and 200 mM phosphate buffer were mixed, and diluted with ultrapure water to give a liver microsomes solution containing 2.5 mg/mL liver microsomes (the final concentration of the reaction system is 0.5 mg/mL) and 50 mM phosphate buffer. […]
The percentage of the remaining compound after 30 minutes of incubation comparing with that in the 0-minute sample was calculated using the peak area ratio of the compound to the internal standard as an indicator, to evaluate the metabolic stability of the compound.

[5] = system: CIA (collagen induced arthritis) rats; assay: Rat arthritis model induced by type II collagen (CIA); type: in vivo; settings: compared with vehicle control group
Experimental: An appropriate amount of bovine type II collagen (CII, Chondrex (Redmond, Wash., USA), Cat #20021) was weighed and dissolved in 0.1 mole of acetic acid (SPGC Sinopharm Chemical Reagent Co., Ltd (Shanghai, P.R. China), Cat #: 10000218.), which was formulated into a solution with a concentration of 6 mg/mL, stirred at 4° C. overnight, and added with an equal volume of Freund's incomplete adjuvant (Sigma-Aldrich.(St. Louis, Mo., USA), Cat #: SLBW0366.), fully emulsified to prepare an emulsion with a CII concentration of 3 mg/mL.
Female Lewis rats were purchased from Beijing Vital River Laboratory Animal Technology Co., Ltd. (certificate number 20200928Aazz0619000579, initial body weight of 110-130 grams), and 6 rats were randomly selected as a normal group; and all of the remaining rats were immunized. In the first immunization on day 0, the rats except those in the normal group were anesthetized with isoflurane (Hebei Yipin Pharmaceutical Co., Ltd., Lot: C002170601.), and then disinfected with 75% alcohol, and 0.2 mL of emulsion was injected intradermally at the base of the tail thereof. A second challenge was carried out on day 7, and 0.2 mL of emulsion was intradermally injected using the same method. Once the animals developed symptoms on day 10, the incidence conditions thereof were closely monitored.
After grouping, the normal group was not administered, and the rats in the other groups were administered with the control vehicle, 0.25 mg/kg and 4 mg/kg of the reference GDC-0853, and each dose of compound 1 orally once a day until the end of the experiment.
The paw volume was measured on day 10 after immunization, and the left and right hind paw volumes (V) were measured every day after the paw volume increase was detected.
The arthrosis paw volumes of the left and right hind limbs of each animal were measured, and the average paw volume (APV) was calculated according to the following formula: Average paw volume APV=(Vleft+Vright)/2
The average arthrosis paw volume of each animal before administration was used as the baseline (or considered 100% inhibition of inflammation). […]
The area under the curve (AUC) of the average paw volume swelling is the area under the curve of the arthrosis score swelling calculated by the trapezoid method, and the calculation formula is: AUCAPS=1/2×(APSd1+APSd2)×(d2−d1)+1/2×(APSd2+APSd3)×(d3−d2)+ . . . +1/2×(APSdn+APSd(n-1))×(dn−dn-1). […]
ED50 is calculated by XLfit software according to the AUC inhibition ratio of the area under the curve of the average paw volume swelling. […]

RLM, percentage of the remaining compound after 30 minutes of incubation [4] | SMILES | concentration at 16 h [1] | Inhibition ratio (%) on B cell activation [2] | Inhibition ratio (%) on B cell activation ([2]; listed as compound 2) | IC50 [3] | effect on paw volume ([5]; 0.25 mg/kg oral QD) | effect on paw volume ([5]; 4 mg/kg oral QD)
 | C[C@@H]1CN(C2COC2)C[C@H](C)N1c1ccc(Nc2cc(-c3ccnc(-n4ccn5c6c(cc5c4=O)CC(C)(C)C6)c3CO)cn(C)c2=O)nc1 [Compound 2] | 6.6 ± 2.51 ng/mL | 43% | 43% | 6 nM |  | 
 | C[C@H]1CN(C2COC2)C[C@H](C)N1c1ccc(Nc2cc(-c3ccnc(-n4ncn5c6c(cc5c4=O)CC(C)(C)C6)c3CO)cn(C)c2=O)nc1 [Compound 4, 2-(5-((5-((2S,6S)-2,6-dimethyl-4-(oxetan-3-yl)piperazin-1-yl)pyridin-2-yl)amino)-3′-(hydroxymethyl)-1-methyl-6-oxo-1,6-dihydro-[3,4′-bipyridin]-2′-yl)-7,7-dimethyl-7,8-dihydro-2H-cyclopenta[4,5]pyrrolo[1,2-d][1,2,4]triazin-1(6H)-one] |  |  |  | 3 nM |  | 
81.0% | C[C@H]1CN(C2COC2)CCN1c1ccc(Nc2cc(-c3ccnc(N4CCn5c(cc6c5CC(C)(C)C6)C4=O)c3CO)cn(C)c2=O)nc1 [GDC-0853, fenebrutinib, reference compound] | 5.01 ± 2.26 ng/mL |  |  |  | no improvement effect | significantly reduced
